This passage reports Kd, IC50 and Inhibition/% results from publication PMC7494739, “Evaluation of Artificial Intelligence in Participating Structure-Based Virtual Screening for Identifying Novel Interleukin-1 Receptor Associated Kinase-1 Inhibitors” (Frontiers in Oncology, 2020).

Assay [1] addresses IRAK1. To be noted: Figure 1; cited from earlier work.
Assay [2] concerns IRAK1. To be noted: Figure 1; cited from earlier work. This is another data set of the same source.
A further assay addresses IRAK1 kinase (Homo sapiens, UniProt P51617). As to the kind of experiment: IRAK1 bioactivity test (mobility shift assay). It counts as biochemical. To be noted: for IC50: Table 3, initial concentration 100 μM, serial 10-fold dilution to 1 nM.

Sequence of IRAK1 kinase (P51617 whole entry): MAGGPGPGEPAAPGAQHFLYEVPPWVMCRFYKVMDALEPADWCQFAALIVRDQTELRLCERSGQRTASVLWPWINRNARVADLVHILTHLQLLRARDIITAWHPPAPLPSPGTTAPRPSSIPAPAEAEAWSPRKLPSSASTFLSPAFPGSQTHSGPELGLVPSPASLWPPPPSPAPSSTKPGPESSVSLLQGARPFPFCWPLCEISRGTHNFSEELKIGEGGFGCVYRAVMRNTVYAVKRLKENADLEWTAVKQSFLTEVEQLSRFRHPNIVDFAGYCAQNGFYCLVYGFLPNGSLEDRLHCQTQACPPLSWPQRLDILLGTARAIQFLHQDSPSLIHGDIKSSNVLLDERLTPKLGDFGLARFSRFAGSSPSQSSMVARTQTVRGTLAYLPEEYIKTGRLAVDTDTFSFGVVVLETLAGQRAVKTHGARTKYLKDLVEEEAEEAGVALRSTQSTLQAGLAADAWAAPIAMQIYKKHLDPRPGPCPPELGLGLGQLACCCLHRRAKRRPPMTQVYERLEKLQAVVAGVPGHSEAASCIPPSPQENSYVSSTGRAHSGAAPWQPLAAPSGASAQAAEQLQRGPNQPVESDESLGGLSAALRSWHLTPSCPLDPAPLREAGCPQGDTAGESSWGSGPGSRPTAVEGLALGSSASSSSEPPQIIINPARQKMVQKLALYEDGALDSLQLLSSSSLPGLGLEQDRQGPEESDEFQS

On to `CC(C)NC(=O)[C@H]1CC[C@@H](n2/c(=N/C(=O)c3cc(F)cc(F)c3)[nH]c3ccc(CN4CCC(C(C)(C)O)CC4)cc32)CC1` [ALK inhibitor 2], for which the dissociation constant Kd on IRAK1 [1] was 5.6 nM.

As to `C1=C/COCc2cc(ccc2OCCN2CCCC2)Nc2nccc(n2)-c2cccc(c2)COC/1` [JAK/FLT3 inhibitor 3, Pacritinib], the concentration for half-maximal inhibition (IC50) in the assay with IRAK1 [2] is 13.6 nM.

On to `COc1cccc(Nc2nnc(-c3cc4ccc(O)cc4oc3=O)s2)c1` [K231-1211], for which the Inhibition/% at IRAK1 kinase (compound at 20 μM) was -10.5%.

In the case of `O=C(Nc1nc2ccccc2n1CCN1CCOCC1)c1cccc([N+](=O)[O-])c1` [benzimidazole derivative 1], the half-inhibitory concentration (IC50) in the assay with IRAK1 [2] was 300 nM.

As to `NC(=O)COc1ccc2occ(C(=O)c3ccc(Cl)cc3)c2c1` [compound 4], the concentration for half-maximal inhibition (IC50) at IRAK1 kinase is 18000 nM.

With `COc1ccc(C(=O)c2coc3ccc(OCC(N)=O)cc23)cc1OC` [compound 5], the half-maximal inhibitory concentration (IC50) on IRAK1 kinase came to 23700 nM.
